Source: the NIST ThermoML archive (doi:10.1016/j.jct.2016.12.029)

Conditions: Gas, Buoyancy - hydrostatic balance with magnetic suspension - one sinker

C=C(F)C(F)(F)F [2,3,3,3-tetrafluoro-1-propene]
Conditions | mass density [kg/m3]
265.46 K, 101.2 kPa | 5.404
265.48 K, 207.2 kPa | 11.507
270.36 K, 101 kPa | 5.279
270.38 K, 164.6 kPa | 8.792
270.38 K, 250.3 kPa | 13.798
275.39 K, 106.2 kPa | 5.448
275.4 K, 208.6 kPa | 11.064
275.42 K, 303.7 kPa | 16.657
280.28 K, 103.6 kPa | 5.208
280.29 K, 176.6 kPa | 9.076
280.29 K, 274 kPa | 14.527
280.29 K, 356.2 kPa | 19.43
285.27 K, 258.8 kPa | 13.34
285.28 K, 104.7 kPa | 5.162
285.28 K, 164.2 kPa | 8.23
285.28 K, 358.5 kPa | 19.078
290.38 K, 102.2 kPa | 4.937
290.39 K, 184.5 kPa | 9.113
290.4 K, 308.8 kPa | 15.792
290.4 K, 421.2 kPa | 22.298
295.4 K, 101.7 kPa | 4.829
295.4 K, 196.9 kPa | 9.565
295.4 K, 400.6 kPa | 20.565
295.4 K, 600.7 kPa | 32.885
295.41 K, 305.3 kPa | 15.255
295.41 K, 510.2 kPa | 27.092
300.2 K, 668.8 kPa | 36.434
300.21 K, 108 kPa | 5.039
300.21 K, 218.9 kPa | 10.489
300.21 K, 324 kPa | 15.933
300.21 K, 439.4 kPa | 22.291
300.21 K, 545.8 kPa | 28.564
